Source: PMC6770071, “XIAP as a Target of New Small Organic Natural Molecules Inducing Human Cancer Cell Death” (Cancers, 2019)

CCCCCCCC/C=C/CCc1cc(O)c(O)cc1O [Eriopodol C, (E)-5-(dodec-3′-enyl)benzene-1,2,4-triol]
melting point: 138.5 °C
